Assay results taken from patent US20250296940A1, “ANNULATED 2-AMINO-3-CYANO THIOPHENES AND DERIVATIVES FOR THE TREATMENT OF CANCER” (Boehringer Ingelheim Int'l GmbH Corp., priority 2021, published 2025).

Assays:
[1] = Metabolic (microsomal) stability assay; type: in vitro ADME; conditions: human liver microsomes 1 mg/mL, 1 μM compound, 37° C.; predicted clearance as percent of liver blood flow
Experimental: The metabolic degradation of the test compound is assayed at 37° C. with pooled liver microsomes (mouse (MLM), rat (RLM) or human (HLM)). The final incubation volume of 48 μL per time point contains TRIS buffer (pH 7.5; 0.1 M), magnesium chloride (6.5 mM), microsomal protein (0.5 mg/mL for mouse/rat, 1 mg/mL for human specimens) and the test compound at a final concentration of 1 μM. Following a short preincubation period at 37° C., the reactions are initiated by addition of 12 μL beta-nicotinamide adenine dinucleotide phosphate, reduced form (NADPH, 10 mM) and terminated by transferring an aliquot into solvent after different time points (0, 5, 15, 30, 60 min). Additionally, the NADPH-independent degradation is monitored in incubations without NADPH, terminated at the last time point by addition of acetonitrile. The quenched incubations are pelleted by centrifugation (4,000 rpm, 15 min). An aliquot of the supernatant is assayed by LC-MS/MS to quantify the concentration of parent compound in the individual samples.
In vitro intrinsic clearance (CLint, in vitro) is calculated from the time course of the disappearance of the test drug during the microsomal incubation. Each plot is fitted to the first-order elimination rate constant as C(t)=C0*exp(−ke*t), where C(t) and C0 are the concentration of unchanged test drug at incubation time t and that at preincubation and ke is the disappearance rate constant of the unchanged drug. Subsequently, CLint, in vitro (μL min^−1·amount protein) values are converted to predicted CLint,in vivo (mL min^−1·kg^−1) from incubation parameters according to the equation CLint, in vivo=CLint, in vitro×(incubation volume (ml)/amount protein (mg))×(amount protein (mg)/g liver tissue)×(liver weight/body wt.).
For better across species comparison the predicted clearance is expressed as percent of the liver blood flow [% QH](mL min^−1 kg^−1) in the individual species. In general, high stability (corresponding to low % QH) of the compounds across species is desired.
Metabolic stability data obtained with the disclosed assay in HLM for a selection of compounds (I) according to the invention: […]

[2] = biological target: T1, protein-protein interaction between SOS1 and KRAS G12C (Homo sapiens, UniProt P01116, C118S/C51S/C80L/G12C); experiment: KRAS::SOS1 AlphaScreen Binding Assay; conditions: Table 20, compounds (I); 7.5 nM KRAS G12C, 10 μM GDP, 5 nM GST-SOS1
T1 construct: His6 (N); SOS1: in-house or Viva Biotech Ltd; host or cells: E. coli (KRAS)
Description: This assay can be used to examine the potency with which compounds according to the invention binding to KRAS G12C inhibit the protein-protein interaction between SOS1 and KRAS G12C. […] Low IC50 values in this assay setting are indicative of strong inhibition of protein-protein interaction between SOS1 and KRAS:
• GST-tagged SOS1 (564_1049_GST_TEV_ECO) produced in-house • GST-TEV-SOS1 (564-1049) is purchased from Viva Biotech Ltd. • The expression construct of KRAS G12C (amino acids 1-169 of reference sequence P01116-2 (uniprot), with additional mutations: C51S, C80L, and C118S) containing a C-terminal avi-tag was obtained by gene synthesis (GeneArt, Thermo Fisher) in donor vector (pDONR-221) and transferred by recombinant cloning into pDEST17 vector bearing an N-terminal His6-tag. The protein was expressed in E. coli and the purified protein was biotinylated with the E. coli biotin ligase (BirA) before usage. • GDP (Sigma Cat No G7127) • AlphaLISA Glutathione Acceptor Beads (PerkinElmer, Cat No AL109) • AlphaScreen Streptavidin Donor Beads (PerkinElmer Cat No 6760002) • Assay plates: Proxiplate-384 PLUS, white (PerkinElmer, Cat No 6008289)
7.5 nM (final assay concentration) KRAS G12C, 10 μM (final assay concentration) GDP and 5 nM (final assay concentration) GST-SOS1 are mixed in assay buffer prior to use and kept at room temperature.
AlphaLISA Glutathione Acceptor Beads and AlphaScreen Streptavidin Donor Beads are mixed in assay buffer at a concentration of 10 μg/mL (final assay concentration) each prior to use and kept at room temperature.
Compounds are diluted to a final start concentration of 100 μM and are tested in duplicate. Assay-ready plates (ARPs) are generated using an Access Labcyte Workstation with a Labcyte Echo 550 or 555 acoustic dispenser. For compound a start concentration of 100 μM, 150 nL of compound solution is transferred per well in 11 concentrations in duplicate with serial 1:5 dilutions.
The assay is run using a fully automated robotic system in a darkened room below 100 Lux. 10 μL of KRAS::SOS1 GDP mix is added into columns 1-24 to the 150 nL of compound solution (final dilution in the assay 1:100, final DMSO concentration 1%).
After 30 minutes incubation time 5 μL of bead mix is added into columns 1-23. Plates are kept at room temperature in a darkened incubator. After further 60 minutes incubation, the signal is measured using a PerkinElmer Envision HTS Multilabel Reader using the AlphaScreen specifications from PerkinElmer. Each plate contains the following controls: • diluted DMSO+KRAS::SOS1 GDP mix+bead mix • diluted DMSO+KRAS::SOS1 GDP mix
IC50 values are calculated and analyzed using a 4 parametric logistic model.
Tables of example compounds disclosed herein contain IC50 values determined using the above assay.

T1 sequence (P01116 1-169 isoform P01116-2 G12C/C51S/C80L/C118S): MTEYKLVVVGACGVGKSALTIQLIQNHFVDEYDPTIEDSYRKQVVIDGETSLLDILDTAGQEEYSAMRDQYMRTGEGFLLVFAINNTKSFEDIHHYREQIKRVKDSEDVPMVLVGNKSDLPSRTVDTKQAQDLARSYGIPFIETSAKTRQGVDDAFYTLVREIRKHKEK

In the case of C=C(F)C(=O)N1[C@@H](C)CN(c2cc(-c3onc4c3CCC[C@@]43CCCc4sc(N)c(C#N)c43)nc(O[C@@H](C)[C@@H]3CCCN3C)n2)C[C@@H]1C [Ia-3], the “HLM QH” value [1] is reported as 41% and the IC50 [2] is reported as 4 nM.

For C=C(F)C(=O)N1[C@@H](C)CN(c2cc(-c3noc4c3CCC[C@@]43CCCc4sc(N)c(C#N)c43)nc(O[C@@H](C)[C@@H]3CCCN3C)n2)C[C@@H]1C [Ib-6], the “HLM QH” value [1] was 72% and the IC50 [2] was 2.1 nM.

For COC/C=C/C(=O)N1[C@@H](C)CN(c2cc(-c3noc4c3CCC[C@@]43CCCc4sc(N)c(C#N)c43)nc(O[C@@H](C)[C@@H]3CCCN3C)n2)C[C@@H]1C [Ib-9], the “HLM QH” value [1] was 76% and the IC50 [2] was 6.2 nM.

For C=CC(=O)N1CCN(c2cc(O[C@@H](C)[C@@H]3CCCN3C)nc(-c3noc4c3CCC[C@@]43CCCc4sc(N)c(C#N)c43)n2)CC12CC2 [Ib-2], the “HLM QH” value [1] was less than 24% and the IC50 [2] was 1.3 nM.

With C=C(F)C(=O)N1[C@@H](C)CN(c2cc(O[C@@H](C)[C@@H]3CCCN3C)nc(-c3onc4c3CCC[C@@]43CCCc4sc(N)c(C#N)c43)n2)C[C@@H]1C [Ia-1] the “HLM QH” value [1] was less than 24% and the IC50 [2] was 1.6 nM.

For C=CC(=O)N1[C@@H](C)CN(c2cc(O[C@@H](C)[C@@H]3CCCN3C)nc(-c3noc4c3CCC[C@@]43CCCc4sc(N)c(C#N)c43)n2)C[C@@H]1C [Ib-3], the “HLM QH” value [1] was 34% and the IC50 [2] was 1.5 nM.

In the case of C[C@H](Oc1cc(N2C[C@H](C)N(C(=O)/C=C/CF)[C@@H](C)C2)nc(-c2noc3c2CCC[C@@]32CCCc3sc(N)c(C#N)c32)n1)[C@@H]1CCCN1C [Ib-1], the “HLM QH” value [1] is reported as less than 24% and the IC50 [2] is reported as 1.7 nM.

With C=CC(=O)N1[C@@H](C)CN(c2cc(-c3noc4c3CCC[C@@]43CCCc4sc(N)c(C#N)c43)nc(O[C@@H](C)[C@@H]3CCCN3C)n2)C[C@@H]1C [Ib-4] the “HLM QH” value [1] was 45% and the IC50 [2] was 1.4 nM.

For C=C(F)C(=O)N1[C@@H](C)CN(c2cc(O[C@@H](C)[C@@H]3CCCN3C)nc(-c3noc4c3CCC[C@@]43CCCc4sc(N)c(C#N)c43)n2)C[C@@H]1C [Ib-5], the “HLM QH” value [1] was less than 24% and the IC50 [2] was 1.6 nM.

In the case of C[C@H](Oc1nc(-c2noc3c2CCC[C@@]32CCCc3sc(N)c(C#N)c32)cc(N2C[C@H](C)N(C(=O)/C=C/CF)[C@@H](C)C2)n1)[C@@H]1CCCN1C [Ib-7], the “HLM QH” value [1] is reported as 64% and the IC50 [2] is reported as 3.1 nM.

For C=CC(=O)N1[C@@H](C)CN(c2cc(O[C@@H](C)[C@@H]3CCCN3C)nc(-c3onc4c3CCC[C@@]43CCCc4sc(N)c(C#N)c43)n2)C[C@@H]1C [Ia-2], the “HLM QH” value [1] was less than 24% and the IC50 [2] was less than 1.5 nM.

With C=CC(=O)N1[C@@H](C)CN(c2cc(-c3onc4c3CCC[C@@]43CCCc4sc(N)c(C#N)c43)nc(O[C@@H](C)[C@@H]3CCCN3C)n2)C[C@@H]1C [Ia-4] the “HLM QH” value [1] was 28% and the IC50 [2] was 1.6 nM.

With C[C@H](Oc1nc(-c2noc3c2CCC[C@@]32CCCc3sc(N)c(C#N)c32)cc(N2C[C@H](C)N(C(=O)/C=C/c3cccnc3)[C@@H](C)C2)n1)[C@@H]1CCCN1C [Ib-8] the “HLM QH” value [1] was 49% and the IC50 [2] was 3.2 nM.
